# Reference: patent publication US10849881B2, “Octahydro-cyclobuta[1,2-c;3,4-c′]dipyrrol-2-yl” (Hoffmann-La Roche Inc., priority 2013, dated 2020)
# Molecular target: ATX (human His-tagged) (Homo sapiens (Human), UniProt Q13822)
# Experiment: Human ATX enzyme inhibition assay (fluorescence quenching, MR121 substrate)
# Type: biochemical
# Conditions: 30 nM ATX, 1 μM MR121 substrate, 30° C., pH 8.0
# How it was run: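 Fluorescence quenching assay with MR121/tryptophan-labelled substrate analogue in Tris-HCl buffer (140 mM NaCl, CaCl2, MgCl2, 0.01% Triton X-100, pH 8.0). Serially diluted compounds were preincubated 15 min at 30 °C with 30 nM ATX (final), then 1 µM substrate (final) added and incubated 15 min at 30 °C.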
row,SMILES,IC50 [nM]
1,"CC(C)Cn1c(C(=O)N2C[C@@H]3[C@H]4CN(C(=O)c5ccc6[nH]nnc6c5)C[C@H]4[C@@H]3C2)cc2ccccc21 [Example 1.037, [(3aR,3bS,6aR,6bS)-5-(1H-benzotriazole-5-carbonyl)-octahydro-cyclobuta[1,2-c;3,4-c′]dipyrrol-2-yl]-(1-isobutyl-1H-indol-2-yl)-methanone]",159
2,"O=C(c1ccc2[nH]nnc2c1)N1C[C@@H]2[C@H](C1)[C@H]1CN(C(=O)c3cc4cc(OC(F)(F)F)ccc4[nH]3)C[C@@H]21 [Example 1.010, [(3aR,3bS,6aR,6bS)-5-(1H-benzotriazole-5-carbonyl)-octahydro-cyclobuta[1,2-c;3,4-c′]dipyrrol-2-yl]-(5-trifluoromethoxy-1H-indol-2-yl)-methanone]",16
3,"O=C(c1ccc2[nH]nnc2c1)N1C[C@@H]2[C@H](C1)[C@H]1CN(C(=O)c3ccc4cc[nH]c4c3)C[C@@H]21 [Example 1.040, [(3aS,3bS,6aR,6bR)-5-(1H-benzotriazole-5-carbonyl)-octahydro-cyclobuta[1,2-c;3,4-c′]dipyrrol-2-yl]-(1H-indol-6-yl)-methanone]",8670
4,"O=C(c1ccc2[nH]ccc2c1)N1C[C@@H]2[C@H](C1)[C@H]1CN(C(=O)c3ccc4[nH]nnc4c3)C[C@@H]21 [Example 1.043, [(3aS,3bS,6aR,6bR)-5-(1H-benzotriazole-5-carbonyl)-octahydro-cyclobuta[1,2-c;3,4-c′]dipyrrol-2-yl]-(1H-indol-5-yl)-methanone]",1410

# Continued, values first:
row,IC50 [nM],SMILES
1,3.5,"O=C(c1ccc2[nH]nnc2c1)N1C[C@@H]2[C@H](C1)[C@H]1CN(C(=O)c3cc(OCC4CC4)c4ccccc4n3)C[C@@H]21 [Example 1.071, [(3aR,3bS,6aR,6bS)-5-(1H-benzotriazole-5-carbonyl)-octahydro-cyclobuta[1,2-c;3,4-c′]dipyrrol-2-yl]-(4-cyclopropylmethoxy-quinolin-2-yl)-methanone]"
2,5.3,"O=C(c1ccc2[nH]nnc2c1)N1C[C@@H]2[C@H](C1)[C@H]1CN(C(=O)c3cc4ccccc4c(OCC4CC4)n3)C[C@@H]21 [Example 1.058, [(3aR,3bS,6aR,6bS)-5-(1H-benzotriazole-5-carbonyl)-octahydro-cyclobuta[1,2-c;3,4-c′]dipyrrol-2-yl]-(1-cyclopropylmethoxy-isoquinolin-3-yl)-methanone]"
3,14.3,"O=C(c1ccc2[nH]nnc2c1)N1C[C@@H]2[C@H](C1)[C@H]1CN(C(=O)c3ccc4c(c3)[nH]c3ccc(Cl)cc34)C[C@@H]21 [Example 1.068, [(3aS,3bS,6aR,6bR)-5-(1H-benzotriazole-5-carbonyl)-octahydro-cyclobuta[1,2-c;3,4-c′]dipyrrol-2-yl]-(6-chloro-9H-carbazol-2-yl)-methanone]"
4,20,"O=C(c1cccc(-c2ccc(Cl)cc2)c1)N1C[C@@H]2[C@H](C1)[C@H]1CN(C(=O)c3ccc4[nH]nnc4c3)C[C@@H]21 [Example 1.089, (1H-benzotriazol-5-yl)-[(3aS,3bS,6aR,6bR)-5-(4′-chloro-biphenyl-3-carbonyl)-octahydro-cyclobuta[1,2-c;3,4-c′]dipyrrol-2-yl]-methanone]"
5,20,"O=C(c1ccc2[nH]nnc2c1)N1C[C@@H]2[C@H](C1)[C@H]1CN(C(=O)c3ccc(-c4ccc(Cl)cc4)c(=O)[nH]3)C[C@@H]21 [Example 1.075, 6-[(3aR,3bS,6aR,6bS)-5-(1H-benzotriazole-5-carbonyl)-octahydro-cyclobuta[1,2-c;3,4-c′]dipyrrole-2-carbonyl]-3-(4-chloro-phenyl)-1H-pyridin-2-one]"
6,4,"CC(C)Oc1cc(C(=O)N2C[C@@H]3[C@H]4CN(C(=O)c5ccc6[nH]nnc6c5)C[C@H]4[C@@H]3C2)nc2cc(C(F)(F)F)ccc12 [Example 1.070, [(3aR,3bS,6aR,6bS)-5-(1H-benzotriazole-5-carbonyl)-octahydro-cyclobuta[1,2-c;3,4-c′]dipyrrol-2-yl]-(4-isopropoxy-7-trifluoromethyl-quinolin-2-yl)-methanone]"
